Assay results reported in patent publication EP1087941B9, “THIOLESTERS AND USES THEREOF” (THE UNITED STATES OF AMERICA, as represented by THE …, priority 1998, dated 1999).

Columns and labels:
HIV-1 virus = experiment: Virus inactivation determined by PCR assay for intracellularly synthesized viral RNA; assay type: cell-based
Excerpt: The thiolester-treated virions can also be tested for infectivity. The virions are suspended in media (rather than solubilized) and added to target cells. The cultures are then examined to determine whether the virions are still active. To determine whether the treated virus particles are active, the cells are monitored for the presence of intracellularly-synthesized viral RNA using, for example, the polymerase chain reaction (PCR) (Rice (1993) Proc. Natl. Acad. Sci. USA 90:9721; Turpin (1996) J. Virol. 70:6180). Alternatively, cytoprotection assays can be used (Weislow (1993) J. Natl. Cancer Inst. 81:577).
An example of a compound which can be used as a control in the gel mobility shift assay is azodicarbonamide (ADA), a compound which is commercially available from the Aldrich Chemical Company (Milwaukee, WI).

[1] = target: T1, Virion-associated NCp7 proteins from cell-free HIV-1MN (Human immunodeficiency virus type 1 group M subtype B, UniProt P05888); experiment: Intravirion NCp7 cross-linking, non-reducing Western blotting
T1 construct: an attack on the mature NCp7 retroviral zinc fingers in the cell-free virus; endogenous in cells
Description: The interaction of zinc finger inhibitors, such as the thiolesters of the invention, with cell-free virus can result in modification of intravirion NCp7 protein and loss of infectivity. Virion-associated NCp7 proteins from cell-free HIV-1MN were treated with thiolester compounds 44 and 45. They were also evaluated by non-reducing Western blotting using HIV-1 NCp7-specific antibodies. […] Cross-linking by compound 45 was due to formation of intermolecular disulfide bonds because reduction with 2-mercaptoethanol (β-ME) completely reversed the gel retardation.
Virion cross linking was performed as described by Rice (1995) Science 270:1194-1197 and Turpin (1997) Antiviral Chem. Chemother. 8:60-67. Briefly, highly purified HIV-1 MN (11.8 µg total protein) was incubated for 2 hour with concentrations of compound. Virions were concentrated and residual compound was removed by centrifugation (18,000 x g, 1 h, 4°C). The viral pellet was solubilized in 0.5 M Tris-HCl,(pH 6.8), 50% glycerol, 8% SDS and 0.4% bromophenol blue and proteins resolved by Western blotting. Western blotting to detect the expression of HIV-1 proteins in U1 cells or virus pellets for virion cross-linking experiments was carried out as described by Turpin (1996) J. Virol. 70:6180-6189. Briefly, 50 µg of total cellular protein for U1 experiments or the total virion pellet (11.8 µg total viral protein) for NCp7 cross linking studies was resolved on 4 to 20% polyacrylamide gels in SDS with Tris-Glycine (Novex, San Diego CA). Samples for reduced gels were boiled for 5 min in the presence of 5% β-ME prior to loading. Resolved proteins were electroblotted on to polyvinylidene difluoride (PVDF) membranes, and HIV-1 specific proteins were detected using a mixture of goat anti- HIV-1 NCp7 and p24 or anti-NCp7 for virion proteins alone (a kind gift of L. E. Henderson, AIDS Vaccine Program NCI-FCRDC, Frederick, MD). Western blots were developed using standard chemiluminescence methodologies, as produced and described by Dupont-NEN, Wilmington, DE.
Purified concentrated retrovirus and antisera against the purified NC protein of the virus can be used to test the ability of a specific compound to penetrate the virus and react with the NC protein by forming disulfide complexes in the core of the virus. Compound are mixed with the whole retrovirus under reaction conditions appropriate for the compound. The virus is then removed from the reagent by centrifugation and disrupted in, e.g., standard SDS-PAGE sample buffer with (reduced) and without (non-reduced) 2-mercaptoethanol. […] Thus, compounds of interest (i.e., those which cause cross-linking), including the thiolesters of the invention, reduce the amount of monomeric zinc finger protein detected.

SMILES	inactivation of HIV-1 virus (HIV-1 virus)	intravirion NCp7 cross-linking [1]
NC(=O)N=NC(N)=O [ADA, azodicarbonamide]	inactivates HIV-1 virus	
Cc1cn([C@H]2C[C@H](N=[N+]=[N-])[C@@H](CO)O2)c(=O)[nH]c1=O [AZT, 3'-Azido-2'-3'-dideoxythymidine, reference compound]		failed to cross-link NCp7
